Peptide text beside a SMILES is read from it.
System: erythrocytes infected with 3D7 trophozoites
Type: cell-based, Plasmodium falciparum
Conditions: sheet Ratio; for Ratio of metabolite abundance, Exp1_1hr: Exp1, 1hr; for Ratio of metabolite abundance, Exp1_3hr: Exp1, 3hr; for Ratio of metabolite abundance, Exp1_6hr: Exp1, 6hr; for Ratio of metabolite abundance, Exp2_1hr: Exp2, 1hr; for Ratio of metabolite abundance, Exp2_3hr: Exp2, 3hr; for Ratio of metabolite abundance, Exp2_6hr: Exp2, 6hr; for Ratio of metabolite abundance, Exp3_1hr: Exp3, 1hr; for Ratio of metabolite abundance, Exp3_3hr: Exp3, 3hr; for Ratio of metabolite abundance, Exp3_6hr: Exp3, 6hr

Structure (SMILES)	Ratio of metabolite abundance, Exp1_1hr	Ratio of metabolite abundance, Exp1_3hr	Ratio of metabolite abundance, Exp1_6hr	Ratio of metabolite abundance, Exp2_1hr	Ratio of metabolite abundance, Exp2_3hr	Ratio of metabolite abundance, Exp2_6hr	Ratio of metabolite abundance, Exp3_1hr	Ratio of metabolite abundance, Exp3_3hr	Ratio of metabolite abundance, Exp3_6hr
CC(C)(COP(=O)(O)OP(=O)(O)OC[C@H]1O[C@@H](n2cnc3c(N)ncnc32)[C@H](O)[C@@H]1OP(=O)(O)O)[C@@H](O)C(=O)NCCC(=O)NCCS [CoA]	0.7833	0.6851	0.6052	0.7277	0.6878	0.6949	0.705	0.6678	0.6155
O=C(COP(=O)(O)O)[C@@H](O)[C@H](O)[C@H](O)[C@H](O)COP(=O)(O)O [Sedoheptoluse bisphosphate]	2.263	0.7031	0.6514	1.522	1.277	0.7611	1.031	0.8186	0.6336
CC(=O)N[C@H]1[C@@H](OP(=O)(O)OP(=O)(O)OC[C@H]2O[C@@H](n3ccc(=O)[nH]c3=O)[C@H](O)[C@@H]2O)O[C@H](CO)[C@@H](O)[C@@H]1O [UDP-N-acetyl-D-glucosamine]	1.076	0.9078	0.813	0.9909	1.08	0.8625	1.118	1.138	0.9727
Nc1nc2c(ncn2[C@@H]2O[C@H](COP(=O)(O)OP(=O)(O)OP(=O)(O)O)[C@@H](O)[C@H]2O)c(=O)[nH]1 [GTP]	0.6647	0.5629	0.5991	0.6384	0.6479	0.6462	0.7156	0.6328	0.6081
O=P(O)(O)OC[C@H]1O[C@](O)(COP(=O)(O)O)[C@@H](O)[C@@H]1O [Fructose-1-6-bisphosphate]	2.629	3.883	1.856	2.007	1.872	1.498	1.953	1.49	0.822
CC(C)[C@H](NC(=O)[C@H](CCC(=O)O)NC(=O)[C@@H](N)CC(=O)O)C(=O)NCC(=O)O [DEVG] (H-DEVG-OH)	1.013	0.6309	0.8753	0.8701	1.059	1.02	1.139	1.261	0.9839
CC(C)[C@H](NC(=O)[C@@H]1CCCN1)C(=O)N[C@@H](CCC(N)=O)C(=O)O [PVQ] (H-Pro-Val-Gln-OH)	1.621	0.8912	2.731	1.963	1.4303	3.535	1.9381	1.515	2.354
O=C(O)CC[C@H](NC(=O)[C@@H]1CCCN1)C(=O)O [PE] (H-Pro-Glu-OH)	2.339	1.989	3.207	2.25	1.648	3.078	2.352	2.042	3.469
Nc1ccn([C@@H]2O[C@H](COP(=O)(O)O)[C@@H](O)[C@H]2O)c(=O)n1 [CMP]	1.383	1.267	1.102	0.8705	0.5442	1.311	1.179	1.206	1.249
O=C(O)[C@H](Cc1ccccc1)NC(=O)[C@H](Cc1cnc[nH]1)NC(=O)[C@@H]1CCCN1 [PHF] (H-Pro-His-Phe-OH)	1.822	0.7039	1.872	2.081	1.353	2.7014	2.437	1.168	1.525
C[C@H](NC(=O)[C@@H]1CCCN1)C(=O)N[C@@H](CCC(=O)O)C(=O)N[C@@H](Cc1ccccc1)C(=O)O [PAEF] (H-PAEF-OH)	0.6152	0.1924	1.448	0.9598	0.5962	1.961	0.6833	0.575	1.883
O=P(O)(O)OC[C@H]1OC(OP(=O)(O)OP(=O)(O)O)[C@H](O)[C@@H]1O (stereo partly drawn) [5-Phosphoribosyl-1-pyrophosphate]	1.134	1.199	1.224	2.035	1.2624	1.3078	0.8985	1.899	1.985
O=C(O)C[C@H](NC(=O)[C@@H]1CCCN1)C(=O)O [PD] (H-Pro-Asp-OH)	1.093	0.9772	1.538	1.264	1.209	2.9187	1.287	1.3146	2.682
CC(C)[C@H](N)C(=O)N[C@@H](CC(=O)O)C(=O)O [VD]	1.809	1.252	2.887	2.091	1.368	1.996	11.5926	5.435	7.8446
NC(=O)C1=CN([C@@H]2O[C@H](COP(=O)(O)OP(=O)(O)OC[C@H]3O[C@@H](n4cnc5c(N)ncnc54)[C@H](O)[C@@H]3O)[C@@H](O)[C@H]2O)C=CC1 [NADH]	0.4095	0.2777	0.1491	0.4801	0.5784	0.1509	0.301	0.1742	0.1364
NCCOP(=O)(O)OP(=O)(O)OC[C@H]1O[C@@H](n2ccc(N)nc2=O)[C@H](O)[C@@H]1O [CDP-ethanolamine]	1.165	0.8992	0.8287	1.33	1.135	1.07	1.146	1.029	0.9178
CC(C)C[C@H](NC(=O)[C@@H](N)CC(=O)O)C(=O)N[C@@H](CO)C(=O)O [DLS] (H-Asp-Leu-Ser-OH)	0.4981	0.5494	0.8725	0.8907	0.8658	1.124	0.9354	0.5821	0.7887
O=C(O)[C@H](O)COP(=O)(O)O [3-Phosho-D-glycerate]	0.9975	1.1161	1.013	1.017	0.9815	1.001	0.9949	1.065	1.039
CC(C)[C@H](NC(=O)[C@H](C)NC(=O)[C@@H]1CCCN1)C(=O)N[C@@H](Cc1c[nH]cn1)C(=O)O [PAVH]	0.3897	0.1614	0.8308	0.6106	0.3696	0.9246	0.514	0.3038	1.108

From article PMC5298231, “The Malaria Parasite's Lactate Transporter PfFNT Is the Target of Antiplasmodial Compounds Identified in Whole Cell Phenotypic Screens” (PLoS Pathogens, 2017)
